The nature of data set [1]: compatibility investigation of binary mixtures with vitamin B12 by DSC. Conditions: binary mixture with vitamin B12, DSC, various gases and temperatures. Further details: key: ++: good compatibility expected below the stated temperature; +: compatibility below the stated temperature; ++/−: indifferent compatibility, possibly good compatibility below the stated temperature; +/−−: indifferent compatibility, appears to be compatible below the stated temperature; −: (strong) interaction, incompatible; −−−: (strong) interaction, incompatible. Format: physicochemical. Here is the method:
Both vitamin B12 and 5-methyl-(6S)-tetrahydrofolate are unstable in the presence of atmospheric oxygen and humidity. […] Measurements of the incompatibilities between the intended formulation ingredients were carried out by a thermoanalytical method (DSC, differential scanning calorimetry). This allows incompatibilities to be recognized through low enthalpies of fusion and melting temperatures. These are caused for example by a reduced proportion of crystalline substance and the increase in impurities. In the determination, binary mixtures of excipients or active ingredients in each case with vitamin B12 were investigated, and the compatibility was examined under the influence of various gases and temperatures. […]

For data set [2] the following is noted: cited from earlier work.

As to `OC[C@H]1O[C@@H](O[C@H]2[C@H](O)[C@@H](O)C(O)O[C@@H]2CO)[C@H](O)[C@@H](O)[C@H]1O` (some centres unmarked) [Lactose], in data set [1], the Compatibility entry was “+”. Consider Magnesium stearate, for which the Compatibility entry in data set [1] was “++/−”.

Regarding `Nc1nc2ncc(CNc3ccc(C(=O)N[C@@H](CCC(=O)O)C(=O)O)cc3)nc2c(=O)[nH]1` [folic acid], the “reduction of incidence of neural tube defects” value in data set [2] (folic acid fortification of food products, Canada and Chile) is on record as “more than 50%”. Further, the “reduction of neural tube defects” value in data set [2] (intake at the right time around conception) was 50-70%. Take `C[C@]12CCC(=O)C=C1[C@@H]1C[C@@H]1[C@H]1[C@@H]3[C@@H]4C[C@@H]4[C@@]4(CCC(=O)O4)[C@@]3(C)CC[C@@H]12` [Drospirenone]: in data set [1], the Compatibility entry is reported as “+”.

Source of the values: US10463666B2, “Pharmaceutical composition comprising progestogens and/or estrogens and 5-methyl-(6S)-tetrahydrofolate” (MERCK & CIE, priority 2005, dated 2019).
